Patent US20170368082A1, “FORMULATIONS OF BRINCIDOFOVIR” (priority 2016, published 2017)
Where “and” joins values, the source holds several entries; their conditions need not be identical. Equal values may be shown once.

Assay: Tissue distribution by quantitative whole-body autoradiography (QWBA)
Type: in vivo, male Sprague Dawley and Long-Evans rats
Details: for Concentration of radioactivity: SD rat
Method: The study utilized 4 groups of male SD rats (albino), and 3 groups of male LE rats (pigmented); a total of 39 rats. All animals were obtained from Hilltop Lab Animals, Inc. (Scottdale, Pa.). […] Rats in Group 5 were administered a single 2-h IV infusion of [^14C]brincidofovir at a target dose of 2 mg/kg. […] Three dosing formulations (one for high dose IV, one for low dose IV, and one for PO dose) were prepared at QPS on the day of dosing. The IV formulation for Groups 1, 2, 3, and 4 contained a vehicle of 10 mM sodium phosphate buffer in 5% dextrose solution at pH 8.0(±0.1).
Each animal, at their respective termination time points, was euthanized for QWBA analysis immediately after blood collection. One rat per time point per Group was euthanized as listed below.
The blood samples were maintained on wet ice (approximately 4° C.) and then centrifuged to obtain plasma within 1 h of the blood collection time. Centrifuge settings were recorded in the study notebook. Duplicate aliquots of plasma (0.050 mL) were analyzed for radioactivity using direct counting by LSC, and residual plasma was stored at approximately −70° C. and was saved for possible future analysis under a separate study protocol. Residual red blood cells were discarded as radioactive waste.
The pinna, distal limbs, hair, and tail were removed from each frozen carcass and each frozen carcass was embedded in an aqueous suspension of approximately 2% (w/v) carboxymethylcellulose and frozen into a block. The blocks were stored at approximately −20° C. prior to sectioning. Each blocked carcass was mounted on the object stage of a cryomicrotome (Leica CM3600 Cryomacrocut, Nussloch, Germany and Vibratome 9800, St. Louis, Mo.) maintained at approximately −20° C. and internal standards (3), which were plasma fortified with [^14C]-glucose at one concentration (approximately 0.05 μCi/mL), were placed into the frozen blocks, prior to sectioning, and were used for section thickness quality control. A number of whole-body sections (approximately 40 μm thick) were taken in the sagittal plane at various levels of interest using a whole-body cryomicrotome set at −20° C. Sagittal sections (20-50 μm thick) of frozen carcasses were exposed to phosphor imaging plates. Regions of images in tissues were converted to concentrations using standards. All of the major tissues, organs, and biological fluids were represented.
Tissue concentration data was determined for the following tissues and/or contents: adipose (brown and white), adrenal gland, bile (in duct), blood (cardiac), bone, bone marrow, brain (cerebrum, cerebellum, medulla), cecum (and contents), large intestine (and contents), epididymis, esophagus, eye (uvea and lens), Harderian gland, heart, kidney (cortex and medulla), liver, lung, lymph node, pancreas, pituitary gland, prostate gland, salivary gland, seminal vesicles, skeletal muscle, skin (pigmented and non-pigmented), small intestine (and contents), stomach (gastric mucosa and contents), spleen, spinal cord, testis, thymus, thyroid, and urinary bladder (and contents).
The imaging plate and sections were placed in light-tight exposure cassettes, in a copper-lined lead safe, for a 4-day exposure at room temperature. […] Quantification was performed by image densitometry using MCD image analysis software (v. 7.0, Interfocus Imaging Ltd) and a standard curve constructed from the integrated response [i.e., Molecular Dynamics Counts per square millimeter (MDC/mm^2)] and the nominal concentrations of the ^14C-calibration standards. The concentrations of radioactivity were expressed as the μg equivalents of [^14C]brincidofovir per gram sample (μg equiv/g). A lower limit of quantification (LLOQ) was applied to the data (See section 6.7.4).
Tissue concentrations that fell below the LLOQ were identified as being below the quantification limit (BQL). Tissue areas that were not visualized on autoradiographic images were identified as no sample (NS) and reported as BQL.

[1] = Group 6 SD albino rats, oral 15 mg/kg, c2 2 h, c3 24 h, c4 168 h, LLOQ 0.034

## CCCCCCCCCCCCCCCCOCCCOP(=O)(O)CO[C@H](CO)Cn1ccc(N)nc1=O [[^14C]brincidofovir]
15 mg/kg
  Bile Cmax, IV relative to oral: 14 times
  Small intestinal tissue concentration, IV relative to oral: approximately 1/10
  Small intestine Cmax, oral compared to IV: 6 fold
15 mg/kg 2-h IV
  Tissue t1/2: adrenal gland: 254 h
  Tissue t1/2: blood (cardiac): 14.2 h
  Tissue t1/2: bone marrow: 276 h
  Tissue t1/2: lymph node: 345 h
  Tissue t1/2: skin non-pigmented: 310 h
  Tissue t1/2: spleen: 378 h
15 mg/kg PO
  Tissue t1/2: adipose (brown): 234 h
  Tissue t1/2: esophagus: 37.2 h
  Tissue t1/2: lung: 93 h
  Tissue t1/2: pituitary gland: 106 h
  Tissue t1/2: small intestine: 98.1 h
  Tissue t1/2: spleen: 115 h
Adipose (brown), 2 h, 15 mg/kg IV
  Concentration of radioactivity: 2.088 μg equiv./g
Adipose (brown), 24 h, 15 mg/kg IV
  Concentration of radioactivity: 0.473 μg equiv./g
Adipose (brown), 168 h, 15 mg/kg IV
  Concentration of radioactivity: 0.391 μg equiv./g
Adipose (white), 2 h, 15 mg/kg IV
  Concentration of radioactivity: 0.386 μg equiv./g
Adipose (white), 24 h, 15 mg/kg IV
  Concentration of radioactivity: 0.135 μg equiv./g
Adipose (white), 168 h, 15 mg/kg IV
  Concentration of radioactivity: BQL (BQL = Value is below the LLOQ)
Adrenal Gland, 2 h, 15 mg/kg IV
  Concentration of radioactivity: 4.308 μg equiv./g
Adrenal Gland, 24 h, 15 mg/kg IV
  Concentration of radioactivity: 1.680 μg equiv./g
Adrenal Gland, 168 h, 15 mg/kg IV
  Concentration of radioactivity: 0.647 μg equiv./g
Bile (in duct), 24 h, 15 mg/kg IV
  Concentration of radioactivity: 1.469 μg equiv./g
Bile (in duct), 168 h, 15 mg/kg IV
  Concentration of radioactivity: 0.058 μg equiv./g
Blood (cardiac), 2 h, 15 mg/kg IV
  Concentration of radioactivity: 6.865 μg equiv./g
Blood (cardiac), 24 h, 15 mg/kg IV
  Concentration of radioactivity: 0.308 μg equiv./g
Blood (cardiac), 168 h, 15 mg/kg IV
  Concentration of radioactivity: BQL (BQL = Value is below the LLOQ)
Bone Marrow, 2 h, 15 mg/kg IV
  Concentration of radioactivity: 3.411 μg equiv./g
Bone Marrow, 24 h, 15 mg/kg IV
  Concentration of radioactivity: 1.219 μg equiv./g
Bone Marrow, 168 h, 15 mg/kg IV
  Concentration of radioactivity: 0.196 μg equiv./g
Bone, 2 h, 15 mg/kg IV
  Concentration of radioactivity: 0.449 μg equiv./g
Bone, 24 h, 15 mg/kg IV
  Concentration of radioactivity: 0.095 μg equiv./g
Bone, 168 h, 15 mg/kg IV
  Concentration of radioactivity: BQL (BQL = Value is below the LLOQ)
Brain (cerebellum), 2 h, 15 mg/kg IV
  Concentration of radioactivity: 0.907 μg equiv./g
Brain (cerebellum), 24 h, 15 mg/kg IV
  Concentration of radioactivity: 0.161 μg equiv./g
Brain (cerebellum), 168 h, 15 mg/kg IV
  Concentration of radioactivity: BQL (BQL = Value is below the LLOQ)
Brain (cerebrum), 2 h, 15 mg/kg IV
  Concentration of radioactivity: 0.803 μg equiv./g
Brain (cerebrum), 24 h, 15 mg/kg IV
  Concentration of radioactivity: 0.107 μg equiv./g
Brain (cerebrum), 168 h, 15 mg/kg IV
  Concentration of radioactivity: BQL (BQL = Value is below the LLOQ)
Brain (medulla), 2 h, 15 mg/kg IV
  Concentration of radioactivity: 0.864 μg equiv./g
Brain (medulla), 24 h, 15 mg/kg IV
  Concentration of radioactivity: 0.132 μg equiv./g
Brain (medulla), 168 h, 15 mg/kg IV
  Concentration of radioactivity: BQL (BQL = Value is below the LLOQ)
Cecum (contents), 2 h, 15 mg/kg IV
  Concentration of radioactivity: 0.085 μg equiv./g
Cecum (contents), 24 h, 15 mg/kg IV
  Concentration of radioactivity: 58.016 μg equiv./g
Cecum, 2 h, 15 mg/kg IV
  Concentration of radioactivity: 3.658 μg equiv./g
Cecum, 24 h, 15 mg/kg IV
  Concentration of radioactivity: 5.981 μg equiv./g
Cecum, 168 h, 15 mg/kg IV
  Concentration of radioactivity: 0.099 μg equiv./g
Epididymis, 2 h, 15 mg/kg IV
  Concentration of radioactivity: 2.391 μg equiv./g
Epididymis, 24 h, 15 mg/kg IV
  Concentration of radioactivity: 0.566 μg equiv./g
Epididymis, 168 h, 15 mg/kg IV
  Concentration of radioactivity: 0.234 μg equiv./g
G4 15 mg/kg IV, c3 2 h, c6 8 h, c9 24 h, c12 72 h
  Concentration, Seminal Vesicles: 1.374 μg equiv/g tissue and 1.834 μg equiv/g tissue and 1.717 μg equiv/g tissue and 1.127 μg equiv/g tissue
G5 2 mg/kg IV, c2 2 h, c5 8 h, c8 24 h, c11 72 h, LLOQ 0.005
  Concentration, Eye (lens): BQL
Group 3, 2 h
  Urinary bladder contents: 47.0 μg equiv/g
Group 3 SD, 15 mg/kg 2-h IV
  Concentration at Tmax: kidney cortex: 106.5 μg equiv/g
  Concentration at Tmax: kidney medulla: 33.4 μg equiv/g
  Concentration at Tmax: liver: 229.4 μg equiv/g
  Concentration at Tmax: small intestine: 43.7 μg equiv/g
  Concentration at Tmax: urinary bladder: 36.0 μg equiv/g
Group 3 SD, 15 mg/kg IV, 2 h
  Highest observed concentration in blood: 6.9 μg equiv/g
Group 4, 15 mg/kg IV
  Concentration in spleen at 840 h post-dose: 0.270 μg equiv/g
Group 4, 4 h
  Urinary bladder contents: 814.4 μg equiv/g
Group 4 LE, 15 mg/kg 2-h IV
  Concentration at Tmax: kidney cortex: 97.3 μg equiv/g
  Concentration at Tmax: kidney medulla: 27.0 μg equiv/g
  Concentration at Tmax: liver: 229.7 μg equiv/g
  Concentration at Tmax: small intestine: 71.0 μg equiv/g
  Concentration at Tmax: urinary bladder: 22.8 μg equiv/g
Group 4 LE, 15 mg/kg IV, 2 h
  Highest observed concentration in blood: 5.3 μg equiv/g
Group 5, 2 h
  Bile: 32.7 μg equiv/g
  Urinary bladder contents: 22.9 μg equiv/g
Group 5 LE, 2 mg/kg 2-h IV
  Concentration at Tmax: kidney cortex: 11.0 μg equiv/g
  Concentration at Tmax: kidney medulla: 3.4 μg equiv/g
  Concentration at Tmax: large intestine: 1.0 μg equiv/g
  Concentration at Tmax: liver: 34.2 μg equiv/g
  Concentration at Tmax: small intestine: 2.5 μg equiv/g
Group 5 LE, 2 mg/kg IV, 2 h
  Highest observed concentration in blood: 0.771 μg equiv/g
Group 6, 2 h
  Bile: 9.7 μg equiv/g
Group 6, 24 h
  Urinary bladder contents: 39.9 μg equiv/g
[1]
  Concentration of radioactivity, Brain (cerebrum): BQL
  Concentration of radioactivity, Brain (medulla): BQL
  Concentration of radioactivity, Eye (lens): BQL
  Concentration of radioactivity, Spinal Cord: BQL
Group 6 SD albino rats, oral 15 mg/kg, c2 2 h, c3 24 h, c4 168 h, LLOQ 0.034, 15 mg/kg
  Concentration of radioactivity, Epididymis: 0.073 μg equiv./g and 0.091 μg equiv./g and 0.075 μg equiv./g
Group 6 SD, 15 mg/kg PO
  Concentration at Tmax: cecum: 7.5 μg equiv/g
  Concentration at Tmax: kidney cortex: 18.4 μg equiv/g
